Reference: patent US20260297542A1, “HERBICIDE RESISTANT PLANTS” (SYNGENTA CROP PROTECTION AG, priority 2023, published 2026)
Where a chain is given by its changes, count along the chain named.

Key:
Assay in all cases: E. coli hemG growth inhibition by herbicide, AtPPO1 variant
Assay type in all cases: cell-based
Conditions in all cases: read-out: percentage growth inhibition
AtPPO1 L464Y = biological target: T1, AtPPO1 L464Y (Arabidopsis thaliana, UniProt P55826, L464Y)
T1 construct: expressed in transfected cells; host or cells: E. coli BL21(DE3) hemG, pET24a plasmid
T1 sequence (P55826 35-537 L464Y): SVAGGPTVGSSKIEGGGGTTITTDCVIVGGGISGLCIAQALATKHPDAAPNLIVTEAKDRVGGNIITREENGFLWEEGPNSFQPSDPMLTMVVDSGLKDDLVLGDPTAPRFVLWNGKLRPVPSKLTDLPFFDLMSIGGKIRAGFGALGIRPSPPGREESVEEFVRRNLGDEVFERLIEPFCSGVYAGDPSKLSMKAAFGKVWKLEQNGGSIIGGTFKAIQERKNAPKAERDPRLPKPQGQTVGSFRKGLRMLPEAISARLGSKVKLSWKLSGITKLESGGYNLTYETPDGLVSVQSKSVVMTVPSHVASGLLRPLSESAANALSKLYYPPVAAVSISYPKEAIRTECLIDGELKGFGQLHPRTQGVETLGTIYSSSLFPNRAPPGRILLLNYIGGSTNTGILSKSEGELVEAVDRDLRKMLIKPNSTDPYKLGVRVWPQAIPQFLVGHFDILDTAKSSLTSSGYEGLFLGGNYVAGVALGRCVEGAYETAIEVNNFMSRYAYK
Summary of the method: (§1)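 AtPPO1 variants from a site-saturation library, codon-optimised and T7-driven in pET24a, were expressed in E. coli BL21(DE3) lacking hemG (hemG replaced by CmR). Growth in Terrific broth with 0.1 mM IPTG plus 6.25 ppm herbicide 0 or E, 0.78 ppm herbicide B, or DMSO was read as OD600 after 24 h at 37° C; inhibition was calculated against the DMSO culture.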

AtPPO1 WT = biological target: T2, AtPPO1 WT (Arabidopsis thaliana, UniProt P55826)
T2 construct: expressed in transfected cells; host or cells: E. coli BL21(DE3) hemG (hemG replaced by CmR), pET24a plasmid
T2 sequence (P55826 1-537): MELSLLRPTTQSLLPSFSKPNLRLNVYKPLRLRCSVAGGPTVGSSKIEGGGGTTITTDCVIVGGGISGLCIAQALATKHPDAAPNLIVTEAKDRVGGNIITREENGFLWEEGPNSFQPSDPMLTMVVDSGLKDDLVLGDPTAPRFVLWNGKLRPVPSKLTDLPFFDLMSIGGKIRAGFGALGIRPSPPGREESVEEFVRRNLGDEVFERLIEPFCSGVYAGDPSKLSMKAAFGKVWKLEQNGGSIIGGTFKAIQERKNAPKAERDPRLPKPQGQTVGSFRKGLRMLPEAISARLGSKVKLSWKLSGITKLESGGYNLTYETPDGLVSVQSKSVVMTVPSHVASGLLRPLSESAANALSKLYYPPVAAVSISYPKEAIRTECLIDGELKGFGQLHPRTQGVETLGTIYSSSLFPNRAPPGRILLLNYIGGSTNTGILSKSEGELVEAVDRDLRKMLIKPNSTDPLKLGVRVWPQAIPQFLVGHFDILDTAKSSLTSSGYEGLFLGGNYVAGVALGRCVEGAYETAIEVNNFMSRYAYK
Summary of the method: as §1

AtPPO1 F214Y = biological target: T3, AtPPO1 F214Y (Arabidopsis thaliana, UniProt P55826, F214Y)
T3 construct: expressed in transfected cells; host or cells: E. coli BL21(DE3) hemG (hemG replaced by CmR), pET24a plasmid
T3 sequence (P55826 35-537 F214Y): T1 sequence (P55826 35-537 L464Y) with F180Y, Y430L
Summary of the method: as §1

AtPPO1 G481N = biological target: T4, AtPPO1 G481N (Arabidopsis thaliana, UniProt P55826, G481N)
T4 construct: expressed in transfected cells; host or cells: E. coli BL21(DE3) hemG, pET24a plasmid
T4 sequence (P55826 35-537 G481N): T1 sequence (P55826 35-537 L464Y) with Y430L, G447N
Summary of the method: as §1

SMILES	inhibition at 6.25 ppm (AtPPO1 L464Y) [%]	inhibition at 6.25 ppm (AtPPO1 WT) [%]	inhibition at 6.25 ppm (AtPPO1 F214Y) [%]	inhibition at 6.25 ppm (AtPPO1 G481N) [%]	inhibition at 0.78 ppm (AtPPO1 L464Y) [%]	inhibition at 0.78 ppm (AtPPO1 WT) [%]	inhibition at 0.78 ppm (AtPPO1 F214Y) [%]	inhibition at 0.78 ppm (AtPPO1 G481N) [%]
CC(C)N(C)S(=O)(=O)NC(=O)c1cc(-n2c(=O)cc(C(F)(F)F)n(C)c2=O)c(F)cc1Cl [Herbicide E, saflufenacil]	5	64	63	4				
C#CCN1C(=O)C(F)(F)Oc2cc(F)c(-n3c(=O)n(C)c(=S)n(C)c3=O)cc21 [Herbicide B, trifludimoxazin]					0	61	26	44
CCOC(=O)[C@]1(C)CC(c2cc(-n3c(=O)n(C)c(=S)n(C)c3=O)c(F)cc2Cl)=NO1 [Herbicide D, ethyl (5S)-3-[2-chloro-5-(3,5-dimethyl-2,6-dioxo-4-thioxo-1,3,5-triazinan-1-yl)-4-fluoro-phenyl]-5-methyl-4H-isoxazole-5-carboxylate]	12	58	34	14				
